Source: ChEMBL document CHEMBL5365531, “Structure-Activity Relationship Studies of SARS-CoV-2 Main Protease Inhibitors Containing 4-Fluorobenzothiazole-2-carbonyl Moieties” (J Med Chem, 2023)

How the values were obtained:
SARS-CoV-2 [1] = assay: Antiviral activity against SARS-CoV-2 JPN/TY/WK-521 infected in Vero E6 cells assessed as fold change preincubated with cells for 1 day followed by viral infection and measured after 3 days by qRT-PCR analysis relative to 7-fluoro-N-((S)-1-(((S)-1-(4-fluorobenzo[d]thiazol-2-yl)-1-oxo-3-((S)-2-oxopyrrolidin-3-yl)propan-2-yl)amino)-3,3-dimethyl-1-oxobutan-2-yl)-4-methoxy-1H-indole-2-carboxamide; type: functional, Severe acute respiratory syndrome coronavirus 2; conditions: time 4 day
[2] = Mutagenicity in Salmonella typhimurium TA1535 assessed as fold increase in number of revertants at 0.152 to 333 ug incubated in absence of S9 fraction by micro-Ames test relative to control; type: toxicity, Salmonella enterica subsp. enterica serovar Typhimurium; conditions: in vivo; dose 0.152-333 µg
MT2 = assay: Cytotoxicity against human MT2 cells assessed as reduction in cell viability at 0.4 uM incubated for 12 days by CCK-8 assay; type: toxicity, cell-based; conditions: mt2, 288 h, time 12 day
[3] = Mutagenicity in Escherichia coli WP2uvrA assessed as inhibition of bacterial growth at 0.152 to 333 ug incubated in presence of S9 fraction by micro-Ames test; type: toxicity, subcellular; conditions: dose 0.152-333 µg
[4] = Oral bioavailability in PXB mouse at 10 mg/kg measured for 24 hrs; type: ADME, organism-based; conditions: in vivo
SARS-CoV-2 [5] = assay: Antiviral activity against SARS-CoV-2 assessed as fold change relative to YH-53; type: functional, Severe acute respiratory syndrome coronavirus 2
[6] = Mutagenicity in Salmonella typhimurium TA100 assessed as fold increase in number of revertants at 0.152 to 333 ug incubated in absence of S9 fraction by micro-Ames test relative to control; type: toxicity, Salmonella enterica subsp. enterica serovar Typhimurium; conditions: in vivo; dose 0.152-333 µg
[7] = Cytotoxicity against human A549-hACE2-TMPRSS2 cells; type: toxicity, cell-based
SARS-CoV-2 [8] = assay: Antiviral activity against SARS-CoV-2 infected in Vero E6 cells preincubated with cells for 1 day in absence of HCl followed by viral infection and measured after 3 days by qRT-PCR analysis; type: functional, organism-based; conditions: Severe acute respiratory syndrome coronavirus 2, Vero C1008
[9] = Mutagenicity in Salmonella typhimurium TA100 assessed as inhibition of bacterial growth at 0.152 to 333 ug incubated in presence of S9 fraction by micro-Ames test; type: toxicity, subcellular, Salmonella enterica subsp. enterica serovar Typhimurium; conditions: dose 0.152-333 µg
[10] = Mutagenicity in Salmonella typhimurium TA1535 assessed as fold increase in number of revertants at 0.152 to 333 ug incubated in presence of S9 fraction by micro-Ames test relative to control; type: toxicity, subcellular, Salmonella enterica subsp. enterica serovar Typhimurium; conditions: dose 0.152-333 µg
[11] = Mutagenicity in Salmonella typhimurium TA1537 assessed as fold increase in number of revertants at 0.152 to 333 ug incubated in absence of S9 fraction by micro-Ames test relative to control; type: toxicity, Salmonella enterica subsp. enterica serovar Typhimurium; conditions: in vivo; dose 0.152-333 µg
[12] = Mutagenicity in Salmonella typhimurium TA98 assessed as fold increase in number of revertants at 0.152 to 333 ug incubated in presence of S9 fraction by micro-Ames test relative to control; type: toxicity, subcellular, Salmonella enterica subsp. enterica serovar Typhimurium; conditions: dose 0.152-333 µg
[13] = Mutagenicity in Salmonella typhimurium TA1537 assessed as inhibition of bacterial growth at 0.152 to 333 ug incubated in presence of S9 fraction by micro-Ames test; type: toxicity, subcellular, Salmonella enterica subsp. enterica serovar Typhimurium; conditions: dose 0.152-333 µg
MOLT-4 = assay: Cytotoxicity against human MOLT-4 cells assessed as reduction in cell viability at 0.4 uM incubated for 12 days by CCK-8 assay; type: toxicity, cell-based; conditions: molt-4, 288 h, time 12 day
SARS-CoV-2 [14] = assay: Antiviral activity against SARS-CoV-2 JPN/TY/WK-521 infected in Vero E6 cells assessed as inhibition of viral replication preincubated with cells for 1 day followed by viral infection and measured after 3 to 4 days by qRT-PCR analysis; type: functional, organism-based; conditions: Severe acute respiratory syndrome coronavirus 2, JPN/TY/WK-521, Vero C1008
[15] = Mutagenicity in Salmonella typhimurium TA1537 assessed as inhibition of bacterial growth at 0.152 to 333 ug incubated in absence of S9 fraction by micro-Ames test; type: toxicity, Salmonella enterica subsp. enterica serovar Typhimurium; conditions: in vivo; dose 0.152-333 µg
[16] = Cytotoxicity against human HepG2 cells; type: toxicity, cell-based
[17] = Cytotoxicity against African green monkey Vero E6 cells in presence of P-glycoprotein inhibitor, CP100356; type: toxicity, cell-based, Vero C1008; conditions: chlorocebus sabaeus, with CP100356 (P-glycoprotein inhibitor)
PBMC = assay: Cytotoxicity against human PBMC cells assessed as reduction in cell viability at 0.4 uM incubated for 12 days by CCK-8 assay; type: toxicity, cell-based; conditions: 288 h, time 12 day
[18] = Mutagenicity in Escherichia coli WP2uvrA assessed as fold increase in number of revertants at 0.152 to 333 ug incubated in absence of S9 fraction by micro-Ames test relative to control; type: toxicity; conditions: in vivo; dose 0.152-333 µg
[19] = Cytotoxicity against human HeLa cells expressing ACE2 and TMPRSS2; type: toxicity, cell-based
[20] = Mutagenicity in Salmonella typhimurium TA98 assessed as inhibition of bacterial growth at 0.152 to 333 ug incubated in presence of S9 fraction by micro-Ames test; type: toxicity, subcellular, Salmonella enterica subsp. enterica serovar Typhimurium; conditions: dose 0.152-333 µg
[21] = Mutagenicity in Salmonella typhimurium TA1535 assessed as inhibition of bacterial growth at 0.152 to 333 ug incubated in absence of S9 fraction by micro-Ames test; type: toxicity, Salmonella enterica subsp. enterica serovar Typhimurium; conditions: in vivo; dose 0.152-333 µg
[22] = Mutagenicity in Escherichia coli WP2uvrA assessed as inhibition of bacterial growth at 0.152 to 333 ug incubated in absence of S9 fraction by micro-Ames test; type: toxicity; conditions: in vivo; dose 0.152-333 µg
[23] = Half life in PXB mouse at 10 mg/kg, po measured for 24 hrs; type: ADME, organism-based; conditions: in vivo
SARS-CoV-2 [24] = assay: Antiviral activity against SARS-CoV-2 infected in Vero E6 cells preincubated with cells for 1 day in presence of HCl treated compound followed by viral infection and measured after 3 days by qRT-PCR analysis; type: functional, organism-based; conditions: Severe acute respiratory syndrome coronavirus 2, Vero C1008
SARS-CoV-2 [25] = assay: Antiviral activity against SARS-CoV-2 hCoV-19/Japan/TKYS02037/2022 (omicron BA.2) infected in Vero E6 cells preincubated with cells for 1 day followed by viral infection and measured after 3 days by qRT-PCR analysis; type: functional, organism-based; conditions: Severe acute respiratory syndrome coronavirus 2, hCoV-19/Japan/TKYS02037/2022 (omicron BA.2), Vero C1008
[26] = Cytotoxicity against African green monkey Vero E6 cells incubated for 3 days by WST-8 assay; type: toxicity, cell-based, Vero C1008; conditions: chlorocebus sabaeus, time 3 day
[27] = Mutagenicity in Salmonella typhimurium TA1535 assessed as inhibition of bacterial growth at 0.152 to 333 ug incubated in presence of S9 fraction by micro-Ames test; type: toxicity, subcellular, Salmonella enterica subsp. enterica serovar Typhimurium; conditions: dose 0.152-333 µg
[28] = Mutagenicity in Salmonella typhimurium TA1537 assessed as fold increase in number of revertants at 0.152 to 333 ug incubated in presence of S9 fraction by micro-Ames test relative to control; type: toxicity, subcellular, Salmonella enterica subsp. enterica serovar Typhimurium; conditions: dose 0.152-333 µg
[29] = Mutagenicity in Salmonella typhimurium TA98 assessed as fold increase in number of revertants at 0.152 to 333 ug incubated in absence of S9 fraction by micro-Ames test relative to control; type: toxicity, Salmonella enterica subsp. enterica serovar Typhimurium; conditions: in vivo; dose 0.152-333 µg
[30] = Mutagenicity in Salmonella typhimurium TA98 assessed as inhibition of bacterial growth at 0.152 to 333 ug incubated in absence of S9 fraction by micro-Ames test; type: toxicity, Salmonella enterica subsp. enterica serovar Typhimurium; conditions: in vivo; dose 0.152-333 µg
SARS-CoV-2 [31] = assay: Antiviral activity against SARS-CoV-2 JPN/TY/WK-521 infected in Vero E6 cells preincubated with cells for 1 day followed by viral infection and measured after 3 days by qRT-PCR analysis; type: functional, organism-based; conditions: Severe acute respiratory syndrome coronavirus 2, JPN/TY/WK-521, Vero C1008
[32] = Mutagenicity in Salmonella typhimurium TA100 assessed as fold increase in number of revertants at 0.152 to 333 ug incubated in presence of S9 fraction by micro-Ames test relative to control; type: toxicity, subcellular, Salmonella enterica subsp. enterica serovar Typhimurium; conditions: dose 0.152-333 µg
[33] = Mutagenicity in Salmonella typhimurium TA100 assessed as inhibition of bacterial growth at 0.152 to 333 ug incubated in absence of S9 fraction by micro-Ames test; type: toxicity, Salmonella enterica subsp. enterica serovar Typhimurium; conditions: in vivo; dose 0.152-333 µg
Vero C1008 = assay: Cytotoxicity against African green monkey Vero E6 cells infected with SARS-CoV-2 WK-521 upto 100 uM incubated for 3 days by immunostaining analysis; type: toxicity, cell-based; conditions: chlorocebus sabaeus, vero c1008, 72 h, time 3 day
[34] = Mutagenicity in Escherichia coli WP2uvrA assessed as fold increase in number of revertants at 0.152 to 333 ug incubated in presence of S9 fraction by micro-Ames test relative to control; type: toxicity, subcellular; conditions: dose 0.152-333 µg
[35] = Half life in PXB mouse at 10 mg/kg, iv measured for 24 hrs; type: ADME, organism-based; conditions: in vivo

For `CC(C)(C)[C@H](NC(=O)C(F)(F)F)C(=O)N1C[C@H]2[C@@H]([C@H]1C(=O)N[C@@H](C[C@@H]1CCNC1=O)C(=O)c1nc3c(F)cccc3s1)C2(C)C`, the “fold change (FC)” value (SARS-CoV-2 [1]) was 0.057, the “fold change (FC)” value [2] was greater than 2 and the Activity (MT2) was “Non-Toxic”. For the same compound, the Activity [3] was “Non-Toxic”, the bioavailability [4] was 48% and the “fold change (FC)” value (SARS-CoV-2 [5]) was 0.012. For the same compound, the “fold change (FC)” value [6] was greater than 2, the CC50 [7] was greater than 100 µM and the EC50 (SARS-CoV-2 [8]) was 0.074 µM. The Activity [9] was “Non-Toxic”, the “fold change (FC)” value [10] was greater than 2 and the “fold change (FC)” value [11] was greater than 2. The “fold change (FC)” value [12] was greater than 2, the Activity [13] was “Non-Toxic” and the Activity (MOLT-4) was “Non-Toxic”. For the same compound, the EC50 (SARS-CoV-2 [14]) was 0.03 µM, the Activity [15] was “Non-Toxic” and the CC50 [16] was greater than 200 µM. The CC50 [17] was greater than 100 µM, the Activity (PBMC) was “Non-Toxic” and the “fold change (FC)” value [18] was greater than 2. The CC50 [19] was greater than 100 µM, the Activity [20] was “Non-Toxic” and the Activity [21] was “Non-Toxic”. The Activity [22] was “Non-Toxic”, the half-life [23] was 3.82 h and the EC50 (SARS-CoV-2 [24]) was 0.087 µM. The EC50 (SARS-CoV-2 [25]) was 0.048 µM, the CC50 at 72 h [26] was greater than 100 µM and the Activity [27] was “Non-Toxic”. For the same compound, the “fold change (FC)” value [28] was greater than 2, the “fold change (FC)” value [29] was greater than 2 and the Activity [30] was “Non-Toxic”. The EC50 (SARS-CoV-2 [31]) was 0.012 µM, the “fold change (FC)” value [32] was greater than 2 and the Activity [33] was “Non-Toxic”. For the same compound, the Activity (Vero C1008) was “Non-Toxic”, the “fold change (FC)” value [34] was greater than 2 and the half-life [35] was 1.25 h.
